Like-named read-outs stand apart in the source and are kept apart here. Square brackets hold non-standard residues; d marks the D form. Peptide text beside a SMILES is read from it. * marks the point of attachment. Sta = CC(C)C[C@H](N)[C@@H](O)CC(=O)O; Isovaleryl = CC(C)CC(=O)*
Experiments:
ARID1A-WT HCT116 cells = test: Drug library screen, cell viability (CellTiter-Glo); type: cell-based, human; design: key to Cell viability, WT: % viability relative to DMSO solvent-treated cells
Protocol: (§1) ARID1A-WT and ARID1A-KO HCT116 cancer cells were used for screening assays. […] Cell viability was assessed after 5 days using the CellTiter-Glo Luminescent Cell Viability Assay (Promega). Luminescence was measured using an Envision Multi-label plate reader (PerkinElmer). The luminescence reading was used to determine the cell viability relative to that of cells treated with solvent (DMSO). Candidate compounds were considered if viability of ARID1A-KO cells was less than […] was more than 80%.

ARID1A-KO HCT116 cells = test: as above; type: cell-based, human; design: key to Cell viability, KO: % viability relative to DMSO solvent-treated cells
Protocol: as §1

[1] = HCT116 ARID1A-WT, 10 μM for 5 days, relative to cells treated with solvent (DMSO)
[2] = HCT116 ARID1A-KO, 10 μM for 5 days, relative to cells treated with solvent (DMSO)

| Compound | Cell viability, WT (ARID1A-WT HCT116 cells; [1]) | Cell viability, KO (ARID1A-KO HCT116 cells; [2]) | Cell viability, WT (ARID1A-WT HCT116 cells) | Cell viability, KO (ARID1A-KO HCT116 cells) |
| --- | --- | --- | --- | --- |
| COc1ccc(S(=O)(=O)N(CCO)c2ccccc2CN(C)C/C=C/c2ccc(Cl)cc2)cc1 [KN93] | 20.89 | 23.47 |  |  |
| CN([C@@H](Cc1ccc(OS(=O)(=O)c2cccc3cnccc23)cc1)C(=O)N1CCN(c2ccccc2)CC1)S(=O)(=O)c1cccc2cnccc12 [KN-62] |  |  | 113.3229 | 131.0212 |
| COC(=O)[C@@]1(OC)C[C@H]2O[C@]1(C)n1c3ccccc3c3c4c(c5c6ccccc6n2c5c31)C(=O)N(C)C4 [KT 5823] | 102.1181 | 111.294 |  |  |
| CNC(=N)NCCC[C@H](N)C(=O)O [L-NMMA] | 167.9828 | 116.4094 |  |  |
| c1ccc2c(-c3cnn4cc(-c5ccc(N6CCNCC6)cc5)cnc34)ccnc2c1 [LDN193189] | 2.832 | 2.712 |  |  |
| C/C(O)=C(\C#N)C(=O)Nc1cc(Br)ccc1Br [LFM-A13] | 93.88 | 106.7176 |  |  |
| O=c1cc(N2CCOCC2)oc2c(-c3ccccc3)cccc12 [LY294002] | 127.2893 | 119.3969 |  |  |
| Cc1cccc(-c2nn3c(c2-c2ccnc4ccc(C(N)=O)cc24)CCC3)n1 [LY2157299] | 91.31 | 113.5072 |  |  |
| O=C1C(Nc2ccccc2)=CC(=O)c2ncccc21 [LY 83583] | 4.357 | 4.788 |  |  |
| CCC(=C/[C@H](C)C/C=C/C(C)=C/[C@@H](C)C(=O)[C@@H](C)[C@H](O)[C@@H](C)C/C(C)=C/C(=O)O)/C=C/[C@@H]1OC(=O)C=C[C@@H]1C [Leptomycin B*, Leptomycin B] | 5.031 | 4.969 |  |  |
| CC(C)c1ccc2c(c1)c(SC(C)(C)C)c(CC(C)(C)C(=O)O)n2Cc1ccc(Cl)cc1 [MK 886] | 116.7328 | 112.1339 |  |  |
| O=S(=O)(c1cccc2c(I)cccc12)N1CCCNCC1 [ML-7] | 76.67 | 78.88 |  |  |
| O=C(Nc1cccc(NC(=O)c2cccc(O)c2O)c1)c1cccc(O)c1O [MST-312] | 7.363 | 7.703 |  |  |
| CCCC[C@@H](C)/C=C(C)/C=C(\C)C(=O)NC1=C[C@@](O)(/C=C/C=C/C=C/C(=O)NC2=C(O)CCC2=O)[C@@H]2O[C@@H]2C1=O [Manumycin A] | 61.22 | 52.57 |  |  |
| CCNCCCNCCCCNCCCNCC [N1,N12-Diethylspermine (BESpm), N1,N12-Diethylspermine] | 32.23 | 37.8 |  |  |
| O=C1C(SCCO)=C(SCCO)C(=O)c2ccccc21 [NSC95397] | 41.93 | 15.8033 |  |  |
| COc1ccc(OC)c2c(=S)c3ccccc3[nH]c12 [NSC625987] | 136.0173 | 161.7582 |  |  |
| Cc1nc2c(O)cccc2c(=O)[nH]1 [NU1025] | 174.885 | 123.2356 |  |  |
| NS(=O)(=O)c1ccc(Nc2nc(OCC3CCCCC3)c3[nH]cnc3n2)cc1 [NU6102] | 112.51 | 124.8924 |  |  |
| COc1ccc(C2=N[C@@H](c3ccc(Cl)cc3)[C@@H](c3ccc(Cl)cc3)N2C(=O)N2CCNC(=O)C2)c(OC(C)C)c1 [Nutlin-3] | 23.89 | 25.82 |  |  |
| CCCCCCCCCCCCCCCCCCc1ccc(C(=O)/C=C/C(=O)O)cc1 [OBAA] | 199.8448 | 110.9715 |  |  |
| O=c1onc2cnc3ccccc3n12 [ODQ] | 84.47 | 84.9 |  |  |
| C=CCc1cccc(/C=N/NC(=O)CN2CCN(Cc3ccccc3)CC2)c1O [PAC-1] | 6.045 | 9.44 |  |  |
| COc1ccc(Cn2ccc3ccc(C(=O)NO)cc32)cc1 [PCI-34051] | 71.67 | 72.3 |  |  |
| O=[N+]([O-])c1ccc(-c2nc(-c3ccc(F)cc3)c(-c3ccncc3)[nH]2)cc1 [PD169316] | 161.5329 | 151.5532 |  |  |

| Compound | Cell viability, WT (ARID1A-WT HCT116 cells; [1]) | Cell viability, KO (ARID1A-KO HCT116 cells; [2]) | Cell viability, WT (ARID1A-WT HCT116 cells) | Cell viability, KO (ARID1A-KO HCT116 cells) |
| --- | --- | --- | --- | --- |
| CCN(CC)CCCCNc1ncc2cc(-c3cc(OC)cc(OC)c3)c(NC(=O)NC(C)(C)C)nc2n1 [PD173074] | 8.446 | 7.568 |  |  |
| COc1cccc(-c2cc(=O)c3ccccc3o2)c1N [PD 98059] | 168.8128 | 111.8217 |  |  |
| OCCn1cc(-c2cnc3nnn(Cc4ccc5ncccc5c4)c3n2)cn1 [PF-04217903] | 86.5829 | 93.9615 |  |  |
| O=C(Cc1ccccc1)Nc1c2c(nc3ccccc13)N(Cc1ccccc1)CC2 [PGP-4008] | 106.0362 | 117.1066 |  |  |
| CN(C)CC(=O)Nc1ccc2[nH]c(=O)c3ccccc3c2c1 [PJ-34] |  |  | 18.28 | 15.94 |
| O=C1Nc2ccc3ncsc3c2/C1=C/c1cnc[nH]1 [PKR inhibitor] |  |  | 8.714 | 16.84 |
| CC(C)(C)n1nc(-c2cccc3ccccc23)c2c(N)ncnc21 [PP1 analog] | 76.55 | 69.2339 |  |  |
| CC(C)(C)n1nc(-c2ccc(Cl)cc2)c2c(N)ncnc21 [PP2] | 121.2434 | 149.4142 |  |  |
| CC(C)CC(=O)N[C@H](C(=O)N[C@H](C(=O)N[C@@H](CC(C)C)[C@@H](O)CC(=O)N[C@@H](C)C(=O)N[C@@H](CC(C)C)[C@@H](O)CC(=O)O)C(C)C)C(C)C [Pepstatin A] (Isovaleryl-VV[Sta]A[Sta]-OH) | 115.9467 | 126.4531 |  |  |
| Cc1ccc(-c2cn3c4c(sc3n2)CCCC4)cc1 [Pifithrin-a (cyclic)] | 91.15 | 99.94 |  |  |
| CC(C)[C@H](CO)Nc1nc(Nc2cccc(Cl)c2)c2ncn(C(C)C)c2n1 [Purvalanol A] | 51.32 | 33.47 |  |  |
| O=C1Nc2ccc(I)cc2/C1=C/c1cc(Br)c(O)c(Br)c1 [RAF1 kinase inhibitor I] | 127.271 | 164.7652 |  |  |
| O=C(NCCCCCCNC(=O)ON=C1CCCCC1)ON=C1CCCCC1 [RHC80267] | 82.45 | 92.22 |  |  |
| O=C1Nc2ccccc2C2(CCN(CCc3ccc(C(F)(F)F)cc3)CC2)O1 [RS 102895] | 37.34 | 47.58 |  |  |
| CN1C(=O)CN=C(c2ccc(Cl)cc2)c2cc(Cl)ccc21 [Ro 5-4864] | 92.88 | 98.27 |  |  |
| CCCCOc1cc(CC2CNC(=O)N2)ccc1OC (stereo not shown) [Ro-20-1724] | 163.0432 | 105.8008 |  |  |
| Nc1ncnc2c1nc(Sc1ccc(Cl)cc1)n2[C@@H]1O[C@@H]2COP(O)(=S)O[C@H]2[C@H]1O (stereo partly shown) [Rp-8-CPT-cOMPS] | 110.9572 | 135.7084 |  |  |
| NC1CC1c1cc(F)cc(F)c1OCc1ccccc1 (stereo not shown) [S2101 (LSD1 inhibitor II)] | 80.52 | 83.95 |  |  |
| Oc1ccc(-c2nc(-c3ccc(F)cc3)c(-c3ccncc3)[nH]2)cc1 [SB202190] | 108.8022 | 191.0939 |  |  |
| COc1nccc(-c2c(-c3ccc(F)cc3)ncn2C2CCC(O)CC2)n1 (stereo not shown) [SB239063] | 118.4502 | 174.3691 |  |  |
| C[S+]([O-])c1ccc(-c2nc(-c3ccc(F)cc3)c(-c3ccncc3)[nH]2)cc1 (stereo not shown) [SB 203580] | 163.1226 | 176.0802 |  |  |
| O=C1NC(=O)c2c1c1c3ccccc3n3c1c1c2c2ccccc2n1C1CCC3O1 [SB 218078] | 101.994 | 109.2807 |  |  |
| O=C(Nc1ccc([N+](=O)[O-])cc1O)Nc1ccccc1Br [SB 225002] | 5.2146 | 8.056 |  |  |
| COC(=O)[C@H](Cc1ccc([N+](=O)[O-])cc1)NC(=O)c1cccc2ccccc12 [SB 328437] | 104.1947 | 112.6489 |  |  |
| NC(=O)c1ccc(-c2nc(-c3ccccn3)c(-c3ccc4c(c3)OCO4)[nH]2)cc1 [SB 431542] | 85.04 | 85.02 |  |  |
